The first assay addresses GST-tagged-Wee1 kinase (Homo sapiens, UniProt P30291). In words: Wee1 time-resolved fluorescence equilibrium binding assay (displacement of Oregon Green-labeled ATP-competitive kinase probe).
Conditions: not given
The protocol: Wee1 kinase was assayed using a time-resolved fluorescence equilibrium binding assay monitoring displacement of a rapidly reversible Oregon Green-labeled ATP-competitive kinase probe (N-(2-(2-(2-(4-(4-(5-chloro-4-(2-(1-hydroxycyclobutyl)thiazol-5-yl)-1H-pyrrolo[2,3-b]pyridin-2-yl)phenyl)piperazin-1-yl)ethoxy)ethoxy)ethyl)-2′,7′-difluoro-3′,6′-dihydroxy-3-oxo-3H-spiro[isobenzofuran-1,9′-xanthene]-5-carboxamide) by competitive Wee1 inhibitors.
Chain of GST-tagged-Wee1 kinase (P30291 whole entry): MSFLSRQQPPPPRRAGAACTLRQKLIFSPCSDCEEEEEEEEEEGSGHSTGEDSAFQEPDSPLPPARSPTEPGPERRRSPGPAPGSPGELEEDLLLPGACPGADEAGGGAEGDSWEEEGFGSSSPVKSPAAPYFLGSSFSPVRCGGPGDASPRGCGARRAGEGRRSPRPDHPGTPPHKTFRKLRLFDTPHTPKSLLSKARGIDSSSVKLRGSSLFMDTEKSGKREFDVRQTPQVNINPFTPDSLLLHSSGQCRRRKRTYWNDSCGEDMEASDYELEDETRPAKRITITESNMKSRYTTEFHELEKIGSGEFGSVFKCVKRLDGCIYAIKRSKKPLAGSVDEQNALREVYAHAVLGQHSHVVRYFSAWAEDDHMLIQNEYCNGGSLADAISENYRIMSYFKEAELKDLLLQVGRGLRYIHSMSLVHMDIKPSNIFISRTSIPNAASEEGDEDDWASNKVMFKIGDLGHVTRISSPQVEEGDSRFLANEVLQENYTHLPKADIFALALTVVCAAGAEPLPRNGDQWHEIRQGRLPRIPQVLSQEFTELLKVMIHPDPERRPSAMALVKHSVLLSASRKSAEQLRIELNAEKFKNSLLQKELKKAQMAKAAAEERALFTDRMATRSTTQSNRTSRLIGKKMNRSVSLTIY
`CN1CCN(c2ccc(Nc3ncc4c(=O)n(-c5c(F)cccc5Cl)nc(-c5cccc(O)n5)c4n3)cc2)CC1` [Example 303, 6-(2-chloro-6-fluorophenyl)-8-(6-hydroxypyridin-2-yl)-2-{[4-(4-methylpiperazin-1-yl)phenyl]amino}pyrimido[4,5-d]pyridazin-5(6H)-one]: the Ki was determined as 2.8 nM.

`CN1CCN(c2ccc(Nc3ncc4c(=O)n(-c5c(Cl)cccc5Cl)nc(-c5cccc(-c6ccc[nH]6)c5)c4n3)cc2)CC1` [Example 92, 6-(2,6-dichlorophenyl)-2-{[4-(4-methylpiperazin-1-yl)phenyl]amino}-8-[3-(1H-pyrrol-2-yl)phenyl]pyrimido[4,5-d]pyridazin-5(6H)-one] showed a Ki of 8 nM.

Regarding `Cc1nn(-c2c(F)cccc2Cl)c(=O)c2cnc(Nc3ccc(N4CCNCC4)cc3)nc12` [Example 396, 6-(2-chloro-6-fluorophenyl)-8-methyl-2-{[4-(piperazin-1-yl)phenyl]amino}pyrimido[4,5-d]pyridazin-5(6H)-one], the Ki is 1 nM.

With `Cc1nn(-c2c(Cl)cccc2Cl)c(=O)c2cnc(Nc3cccc(OC4CCN(C)CC4)c3)nc12` [Example 516, 6-(2,6-dichlorophenyl)-8-methyl-2-({3-[(1-methylpiperidin-4-yl)oxy]phenyl}amino)pyrimido[4,5-d]pyridazin-5(6H)-one], the Ki turned out to be 0.36 nM.

Molecule `Cc1cccc(-c2nn(-c3ccccc3Cl)c(=O)c3cnc(Nc4ccc(N5CCN(C)CC5)cc4)nc23)c1` [Example 51, 6-(2-chlorophenyl)-8-(3-methylphenyl)-2-{[4-(4-methylpiperazin-1-yl)phenyl]amino}pyrimido[4,5-d]pyridazin-5(6H)-one] showed a Ki of 0.4 nM.

As for `CCc1nn(-c2c(Cl)cccc2Cl)c(=O)c2cnc(Nc3ccc4c(c3)CNCC4(C)C)nc12` [Example 462, 6-(2,6-dichlorophenyl)-2-[(4,4-dimethyl-1,2,3,4-tetrahydroisoquinolin-7-yl)amino]-8-ethylpyrimido[4,5-d]pyridazin-5(6H)-one], the Ki worked out at 0.95 nM.

The molecule `CN1Cc2cc(Nc3ncc4c(=O)n(-c5ccncc5)nc(-c5ccccn5)c4n3)ccc2C(C)(C)C1` [Example 239, 8-(pyridin-2-yl)-6-(pyridin-4-yl)-2-[(2,4,4-trimethyl-1,2,3,4-tetrahydroisoquinolin-7-yl)amino]pyrimido[4,5-d]pyridazin-5(6H)-one] registered a Ki of 25 nM.

On to `CC(O)Cn1nc(-c2ccccn2)c2nc(Nc3ccc4c(c3)CNCC4(C)C)ncc2c1=O` (centres unmarked) [Example 295, 2-[(4,4-dimethyl-1,2,3,4-tetrahydroisoquinolin-7-yl)amino]-6-(2-hydroxypropyl)-8-(pyridin-2-yl)pyrimido[4,5-d]pyridazin-5(6H)-one], for which the Ki is 501 nM.

As for `Cc1cccc(Cl)c1-n1nc(C)c2nc(Nc3ccc(N4CCN(CCCN(C)C)CC4)cc3)ncc2c1=O` [Example 500, 6-(2-chloro-6-methylphenyl)-2-[(4-{4-[3-(dimethylamino)propyl]piperazin-1-yl}phenyl)amino]-8-methylpyrimido[4,5-d]pyridazin-5(6H)-one], the Ki is 0.51 nM.

For `CN1CCN(c2ccc(Nc3ncc4c(=O)n(-c5ccccc5)nc(-c5ccccn5)c4n3)cc2)CC1` [Example 102, 2-{[4-(4-methylpiperazin-1-yl)phenyl]amino}-6-phenyl-8-(pyridin-2-yl)pyrimido[4,5-d]pyridazin-5(6H)-one], the affinity, expressed as Ki, was 6 nM.

Regarding `Cc1nn(-c2c(F)cccc2Cl)c(=O)c2cnc(Nc3ccc4c(c3)CNCC43CC3)nc12` [Example 308], the Ki amounted to 1 nM.

`C=CCn1nc(-c2cccc(Br)c2)c2nc(Nc3ccc(N4CCN(C)CC4)cc3)ncc2c1=O` [Example 68, 6-allyl-8-(3-bromophenyl)-2-{[4-(4-methylpiperazin-1-yl)phenyl]amino}pyrimido[4,5-d]pyridazin-5(6H)-one] came in with a Ki of 14 nM.

`O=c1c2cnc(Nc3ccc4c(c3)CNCC43CC3)nc2c(C2CC2)nn1-c1c(Cl)cccc1Cl` [Example 391, 8-cyclopropyl-6-(2,6-dichlorophenyl)-2-(2′,3′-dihydro-1′H-spiro[cyclopropane-1,4′-isoquinolin]-7′-ylamino)pyrimido[4,5-d]pyridazin-5(6H)-one] registered a Ki of 0.93 nM.

For the molecule `O=c1c2cnc(Nc3ccc(N4CCNCC4)cc3)nc2c(C(F)F)nn1-c1c(Cl)cccc1Cl` [Example 405, 6-(2,6-dichlorophenyl)-8-(difluoromethyl)-2-{[4-(piperazin-1-yl)phenyl]amino}pyrimido[4,5-d]pyridazin-5(6H)-one], the Ki is 0.79 nM.

Consider `Cc1nn(-c2ccccc2Cl)c(=O)c2cnc(Nc3ccc4c(c3)CCNC4)nc12` [Example 481, 6-(2-chlorophenyl)-8-methyl-2-(1,2,3,4-tetrahydroisoquinolin-6-ylamino)pyrimido[4,5-d]pyridazin-5(6H)-one], for which the affinity, expressed as Ki, was 0.73 nM.

As to `Cn1ccnc1-c1nn(-c2c(Cl)cccc2Cl)c(=O)c2cnc(Nc3ccc(N4CCNCC4)cc3)nc12` [Example 355, 6-(2,6-dichlorophenyl)-8-(1-methyl-1H-imidazol-2-yl)-2-{[4-(piperazin-1-yl)phenyl]amino}pyrimido[4,5-d]pyridazin-5(6H)-one], the affinity, expressed as Ki, was 2.4 nM.

For the molecule `CN1CCN(c2ccc(Nc3ncc4c(=O)n(-c5c(Cl)cccc5Cl)nc(CF)c4n3)cc2)CC1` [Example 419, 6-(2,6-dichlorophenyl)-8-(fluoromethyl)-2-{[4-(4-methylpiperazin-1-yl)phenyl]amino}pyrimido[4,5-d]pyridazin-5(6H)-one], affinity was put at a Ki of 0.19 nM.

The molecule `CN1CCN(c2ccc(Nc3ncc4c(=O)n(-c5c(Cl)cccc5Cl)nc(-c5ccc(C(=O)N(C)C)cc5)c4n3)cc2)CC1` [Example 291, 4-[6-(2,6-dichlorophenyl)-2-{[4-(4-methylpiperazin-1-yl)phenyl]amino}-5-oxo-5,6-dihydropyrimido[4,5-d]pyridazin-8-yl]-N,N-dimethylbenzamide] registered a Ki of 0.38 nM.

For `COc1cccc(-c2nn(-c3ccccc3)c(=O)c3cnc(Nc4ccc(N5CCN(C)CC5)cc4)nc23)c1` [Example 58, 8-(3-methoxyphenyl)-2-{[4-(4-methylpiperazin-1-yl)phenyl]amino}-6-phenylpyrimido[4,5-d]pyridazin-5(6H)-one], the Ki stood at 2 nM.

The molecule `CN1CCN(c2ccc(Nc3ncc4c(=O)n(-c5c(Cl)cccc5Cl)nc(-c5cccs5)c4n3)cc2)CC1` [Example 70, 6-(2,6-dichlorophenyl)-2-{[4-(4-methylpiperazin-1-yl)phenyl]amino}-8-(2-thienyl)pyrimido[4,5-d]pyridazin-5(6H)-one] showed a Ki of 0.1 nM.

Molecule `CN1CCC(n2nc(-c3ccccn3)c3nc(Nc4ccc5c(c4)CN(C)CC5(C)C)ncc3c2=O)CC1` [Example 328, 6-(1-methylpiperidin-4-yl)-8-(pyridin-2-yl)-2-[(2,4,4-trimethyl-1,2,3,4-tetrahydroisoquinolin-7-yl)amino]pyrimido[4,5-d]pyridazin-5(6H)-one] had a Ki of 220 nM.

With `Cc1nn(-c2c(Cl)cccc2Cl)c(=O)c2cnc(Nc3ccc4c(c3)CCNC4(C)C)nc12` [Example 452, 6-(2,6-dichlorophenyl)-2-[(1,1-dimethyl-1,2,3,4-tetrahydroisoquinolin-6-yl)amino]-8-methylpyrimido[4,5-d]pyridazin-5(6H)-one], the affinity corresponds to a Ki of 0.16 nM.

Still in this assay, the particulars now being: read-out: Wee-1 inhibition Ki.
Regarding `Cc1nn(-c2c(Cl)cccc2Cl)c(=O)c2cnc(Nc3ccc4c(c3)CNCC4)nc12` [Example 371], the Ki stood at 0.2 nM.

For the origin of these results see patent US8796289B2 (AbbVie Inc., priority 2011, dated 2014).
